Several values for one entry are separate records, joined by “and”; a condition that tells them apart may be missing. Equal values may be shown once.
Target: Transforming acidic coiled-coil-containing protein 3 (Homo sapiens) (UniProt Q9Y6A5)
Experiment: ARNT/TACC3 interaction disruptors, potency, confirmation, biochemical, AlphaScreen, cherry-picked samples (AID 651703);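 further: TACC3 partner is the GST-tagged E629A mutant dimer; hits lower the signal meaning they disrupt ARNT binding to TACC3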
Conditions: AlphaScreen His-ARNT PAS-B / GST-TACC3 binding, luminescence

| SMILES | AC50 |
| --- | --- |
| COc1cc(CNCc2ccccn2)ccc1OCc1ccc(Cl)cc1Cl | 36.6 µM |
| Cc1ccccc1NC(=O)CSc1ccc(-c2ccccn2)nn1 | 3.47 µM |
| O=C(CSc1cccc2cccnc12)Nc1ccccc1F | 19.5 µM |
| C[C@@H]1CN([C@@H](C)CO)C(=O)Cc2cc(NC(=O)Nc3cccc4ccccc34)ccc2O[C@H]1CN(C)Cc1ccc(Oc2ccccc2)cc1 | 18.4 µM |
| CC(C)(C)CCNc1nc(-c2ccccn2)nnc1-c1ccccc1 | 0.717 µM and < 0.5 µM |
| CC(=O)NC(c1ccco1)c1cc(F)c2cccnc2c1O (stereo unspecified) | 5.76 µM |
| C[C@H](NC(=O)c1ccco1)C(=O)Nc1nc(-c2ccccn2)cs1 | 8.23 µM |
| Cc1ccc(C)c(NC(=O)CSc2n[nH]c(-c3ccccn3)n2)c1 | 0.574 µM |
| NC(=O)CSc1nnc(-c2ccc(O)cc2)n1Cc1ccco1 | 40.8 µM |
| CC1(c2ccccc2)NC(=O)N(CC(=O)Nc2nc(-c3ccccn3)cs2)C1=O (stereo unspecified) | 6.64 µM |
| O=C(Nc1ccc(F)cc1)c1nc[nH]c1C(=O)O | 14.3 µM |
| Cc1[nH]n(-c2ccccc2)c(=O)c1/C=N\NC(=O)C1COc2ccccc2O1 (stereo unspecified) | 17.4 µM |
| O=C(CSc1cccc2cccnc12)N1CCCC1 | 3.28 µM |
| Cc1ccc(C(=O)Nc2cccc(C(=O)N/N=C/c3ccc(O)cc3)c2)cc1 | 32.7 µM |
| O=C(COC(=O)c1cccc(O)c1)Nc1nnc(-c2ccccc2)o1 | 16 µM |
| CCOc1ccccc1NC(=O)CN(c1ccc(OC)cc1)S(=O)(=O)c1c(C)[nH]c(=O)[nH]c1=O | 10.5 µM |
| Nn1c(SC/C=C/c2ccccc2)nnc1-c1ccccn1 | 5.62 µM |
| CCOc1ccccc1C(=O)OCC(=O)Nc1nnc(-c2ccccc2)o1 | 23.3 µM |
| O=C(CN1C(=O)CCC1=O)Nc1nc(-c2ccccn2)cs1 | 4.39 µM |
| C[C@@H](C(=O)Nc1nc(-c2ccccn2)cs1)N1C(=O)C2CCCCC2C1=O (stereo partly specified) | 4.28 µM |
| COc1ccc(NC(=O)CSc2ccc3nnc(-c4ccccn4)n3n2)cc1 | 26.2 µM |
| O=C(Nc1nnc(-c2ccco2)o1)c1ccc(N2C(=O)CCC2=O)cc1 | 22.8 µM |
| CC(C)(C)C(=O)Nc1ccccc1C(=O)NCCCn1ccnc1 | 17.4 µM |

| SMILES | AC50 |
| --- | --- |
| CN1CCN(c2nc(-c3ccccn3)nnc2-c2ccccc2)CC1 | < 0.5 µM |
| O=S(=O)(c1ccccc1)N1C[C@H]2[C@@H](c3ccccc31)[C@@H](CO)N2Cc1ccccn1 | 52.3 µM |
| O=C(CSc1ccc2nnc(-c3ccccn3)n2n1)Nc1ccc2c(c1)OCO2 | 46.5 µM |
| CC(=O)c1cccc(-c2ccc3c(=O)[nH]c(Nc4ccccc4)cc3c2)c1 | 23.1 µM |
| O=C(NCCCn1ccnc1)Nc1ccc(Cl)c(Cl)c1 | 25.2 µM |
| O=C(NNc1ccccn1)C(=O)NNS(=O)(=O)c1ccc(Cl)cc1 | 15.6 µM |
| CC(C)C(=O)NC(c1ccco1)c1ccc2cccnc2c1O (stereo unspecified) | 0.957 µM |
| COc1ccc(C)cc1NC(=O)CSc1ccc(-c2ccccn2)nn1 | 3.11 µM |
| CCOC(=O)N1CCN(S(=O)(=O)c2ccc(C(=O)Nc3nnc(C4CC4)o3)cc2)CC1 | 13.4 µM |
| O=C(COC(=O)c1ccc(O)cc1O)Nc1nnc(-c2ccccc2)o1 | 13.7 µM |
| CCOc1cccc(/C=N/NC(=O)c2cccnc2)c1O | 21.6 µM |
| O=C(O)CSc1cc(NS(=O)(=O)c2cccc([N+](=O)[O-])c2)c2ccccc2c1O | 48.1 µM |
| Cc1nc2ncccn2c1-c1csc(Nc2ccc(O)cc2)n1 | 4.61 µM |
| c1ccc(-c2nc3cc4ccccc4cc3[nH]2)nc1 | 32.7 µM |
| Cc1ccccc1C(=O)Nc1nnc(-c2ccco2)o1 | 43.1 µM |
| O=S(=O)(N[C@H]1CC[C@@H](CCn2cc(-c3ccccn3)nn2)O[C@@H]1CO)c1cccc(F)c1 | 10.9 µM |
| Cc1cccc(NC(=O)CSc2cccc3cccnc23)c1C | 33.7 µM |
| COc1ccc(NC(=O)CSc2nnc(-c3ccccn3)n2N)cc1 | 13.2 µM |
| COc1ccc(C(=O)Nc2nc(-c3ccccn3)cs2)cc1S(=O)(=O)N1CCOCC1 | 3.13 µM |
| O=C(CSc1n[nH]c(=O)[nH]c1=O)N/N=C/c1ccccc1O | 43 µM |
| CCOC(=O)C(NCc1ccccn1)(NC(=O)c1cccnc1)C(F)(F)F (stereo unspecified) | 29.8 µM |
| O=C(Nc1nc(-c2ccccn2)cs1)c1ccc([N+](=O)[O-])o1 | 11.1 µM |
| Cc1ccccc1C(=O)Nc1cccc(C(=O)N/N=C/c2cc(Cl)cc([N+](=O)[O-])c2O)c1 | 40 µM |

| SMILES | AC50 |
| --- | --- |
| CS(=O)(=O)c1cccc(C(=O)Nc2nnc(C3=COCCO3)o2)c1 | 45.6 µM |
| COc1ccc(C2=Nn3c(nnc3-c3ccccn3)SC2)cc1 | 11.2 µM |
| c1ccc(-c2nnc(-c3ccccn3)nc2N2CCC(N3CCOCC3)CC2)cc1 | < 0.5 µM |
| O=C(NCCCn1ccnc1)C(=O)NCC1OCCN1S(=O)(=O)c1ccccc1 (stereo unspecified) | 6.92 µM |
| CCOc1ncccc1C(=O)OCC(=O)Nc1nnc(-c2ccccc2)o1 | 21.6 µM |
| C=CCn1c(CNc2ccccc2)nnc1SCC(=O)N/N=C/c1ccc(O)cc1O | 25.1 µM |
| COc1ccc(-c2nc(C#N)c(N3CCCCC3)o2)cc1 | 32.2 µM |
| O=S(=O)(N[C@@H]1CC[C@@H](CCn2cc(-c3ccccn3)nn2)O[C@@H]1CO)c1cccc(F)c1 | 13.4 µM |
| CC(=O)NC(c1ccc2ccccc2c1)c1ccc2cccnc2c1O (stereo unspecified) | 5.44 µM |
| C=CCSc1nnc(-c2cccc3ccccc23)o1 | 5.8 µM |
| Cc1ccc(S(=O)(=O)NC(=O)c2cc(C)n(CCCn3ccnc3)c2C)cc1 | 21.2 µM |
| Oc1ccc(/C=N/Nc2ccc(Cl)nn2)c(O)c1O | 0.702 µM |
| CCCCCc1cc(=O)oc2c(C(CCN3CCCC3)c3ccc(N(C)C)cc3)c(OC)cc(OC)c12 (stereo unspecified) | 6.86 µM |
| COc1ccc(S(=O)(=O)n2oc(=O)cc2-c2ccccc2)cc1OC | 2.6 µM |
| CCCC(=O)NC(c1cccs1)c1cc([N+](=O)[O-])c2cccnc2c1O (stereo unspecified) | 3.51 µM |
| N#CC1=C(N)Oc2c(ccc3cccnc23)C1c1ccccc1 (stereo unspecified) | 17.7 µM |
| O=C(CN1CCCCCCC1)N/N=C/c1ccc(F)c(F)c1 | 65.8 µM |
| CCN(CC)c1ccc(/C=N/N=C(N)N)c(O)c1 | 38.9 µM |
| O=C(Nc1nc(-c2ccccn2)cs1)C12CC3CC(CC(O)(C3)C1)C2 | 6.45 µM |
| CCOc1ccc2c(c1)c(N=NC(=N)N)c(O)n2C | 53.9 µM |
| Cc1n[nH]c(=O)nc1N/N=C/c1ccco1 | 42.5 µM |
| Cc1nc(Nc2ccc(C(=O)O)cc2)nc(Nc2ccc(C(=O)O)cc2)c1[N+](=O)[O-] | 22.1 µM |
| Cc1nnc(SCC(=O)Nc2nnc(-c3ccccc3)o2)s1 | 16.4 µM |

| SMILES | AC50 |
| --- | --- |
| COc1ccc(S(=O)(=O)N2CCCOC2CNC(=O)C(=O)NCCCn2ccnc2)cc1OC (stereo unspecified) | 47.2 µM |
| O=C(Oc1ccc(Cl)c2cccnc12)c1cccnc1 | 9.58 µM |
| c1ccc(-c2nc3ccccc3[nH]2)nc1 | 44 µM |
| Cc1ccc(/C=N/Nc2cn[nH]c(=O)n2)o1 | 26.3 µM |
| c1ccc(-c2n[nH]c(-c3ccccn3)n2)cc1 | 11.6 µM |
| CCc1cc2c(=O)[nH]c(-c3ccccn3)nc2s1 | 2.86 µM |
| COc1ccc(Cc2nnc(N/N=C/c3ccccc3O)[nH]c2=O)cc1OC | 1.42 µM |
| CCCC(=O)NC(c1ccco1)c1cc([N+](=O)[O-])c2cccnc2c1O (stereo unspecified) | 8.21 µM |
| O=C(COC(=O)c1cccs1)Nc1nnc(-c2ccccc2)o1 | 14.1 µM |
| O=C(N/N=C(\c1ccccc1)c1cccnc1)c1cccc(F)c1 | 21.7 µM |
| COc1cccc(C2c3[nH]c4ccccc4c3CCN2Cc2ncc[nH]2)c1 (stereo unspecified) | 38 µM |
| O=C(Oc1c(CN2CCOCC2)cc(Cl)c2cccnc12)c1ccccc1 | 18.3 µM |
| Cc1cccc(S(=O)(=O)N[C@H]2CC[C@H](CCn3cc(-c4ccccn4)nn3)O[C@H]2CO)c1 | 18.5 µM |
| c1ccc(-c2nnc(-c3ccccn3)nc2NCC2CC2)cc1 | < 0.5 µM |
| O=S(=O)(N[C@@H]1CCCN(Cc2ccc(OCCO)cc2)C1)c1cccc2cccnc12 | 16.2 µM |
| N#Cc1ccc(C(=O)Nc2nnc(-c3ccco3)o2)cc1 | 27.7 µM |
| O=S(=O)(N[C@H]1CC[C@H](CCn2cc(-c3ccccn3)nn2)O[C@H]1CO)c1cccc(F)c1 | 21.8 µM |
| Cc1ccc(C2(C)NC(=O)N(CC(=O)Nc3nc(-c4ccccn4)cs3)C2=O)cc1 (stereo unspecified) | 4.67 µM |
| C[C@@H]1CCCCO[C@@H](CN(C)C(=O)Nc2cccc3ccccc23)[C@H](C)CN([C@@H](C)CO)C(=O)c2cc(NS(=O)(=O)c3cn(C)cn3)ccc2O1 | 56.4 µM |
| COc1ccccc1NC(=O)CSc1n[nH]c(-c2ccccn2)n1 | 0.821 µM |
| O=C(CCS(=O)(=O)c1ccc(F)cc1)Nc1nc(-c2ccccn2)cs1 | 6.22 µM |
| CN1CC[C@@]2(C)c3cc(O)ccc3N(C)[C@@H]12 | 60.1 µM |
| O=S(=O)(N[C@@H]1CC[C@@H](CCn2cc(-c3ccccn3)nn2)O[C@@H]1CO)c1cccc(Cl)c1 | 27.2 µM |

| SMILES | AC50 |
| --- | --- |
| CCC(=O)NC(c1cc(Cl)c2cccnc2c1O)C(C)C (stereo unspecified) | 5.58 µM |
| COc1cc2c(cc1O)C[C@H]1NCCc3cc4c(c-2c31)OCO4 | 27.7 µM |
| C[C@@H]1CN([C@H](C)CO)C(=O)c2cc(NC(=O)Nc3ccc(C(F)(F)F)cc3)ccc2O[C@@H](C)CCCCO[C@@H]1CN(C)Cc1ccc2c(c1)OCO2 | 38.1 µM |
| CC(=O)/C(=N\Nc1ccc(Cl)cc1Cl)Sc1cccc2cccnc12 | 2.95 µM |
| c1ccc(CNc2nc(-c3ccccn3)nnc2-c2ccccc2)cc1 | < 0.5 µM |
| COc1ccc(CNc2nc(-c3ccccn3)nnc2-c2ccccc2)cc1 | 0.611 µM |
| c1ccc(CNc2nc(-c3ccccn3)nc3ccccc23)cc1 | 11.4 µM |
| c1ccc(-c2cnnc(-c3ccccn3)n2)cc1 | 2.57 µM |
| CNc1nc(-c2ccccn2)nnc1-c1ccccc1 | < 0.5 µM |
| Cc1ccc(S(=O)(=O)CCC(=O)Nc2nc(-c3ccccn3)cs2)cc1 | 10.5 µM |
| Cc1c(C(=O)N(C)C)sc2nc(-c3ccccn3)[nH]c(=O)c12 | 2.78 µM |
| COc1cc(OC)c2c(-c3ccccc3)cc(=O)oc2c1C(CCN1CCCCC1)c1ccc(N(C)C)cc1 (stereo unspecified) | 7.83 µM |
| O=C(COC(=O)c1ccccn1)c1cccc(Br)c1 | 11.8 µM |
| CSc1ccccc1NC(=O)CN(C)C(=O)COc1cccc2cccnc12 | 13.8 µM |
| COCc1ccc(O)c2ncccc12 | 2.22 µM |
| O=C(CSc1nnc(-c2cccnc2)o1)Nc1nccs1 | 17.7 µM |
| COc1ccccc1NC(=O)CSc1ccc(-c2ccccn2)nn1 | 3.1 µM |
| C[C@H](CO)N1C[C@H](C)[C@@H](CN(C)S(=O)(=O)c2ccc(Cl)cc2)Oc2c(NC(=O)Nc3cccc4ccccc34)cccc2C1=O | 62 µM |
| CC(=O)Nc1ccc(Oc2nc(-c3ccccn3)nc3ccccc23)cc1 | 7.02 µM |

— PubChem BioAssay AID651703 (Broad Institute, 2012)
